In brackets after ≈: the same amount, converted by molar mass.
What was measured:
[1] = system: methicillin-sensitive Staphylococcus aureus (MSSA); assay: MIC, two-fold agar dilution (CLSI), clinical isolates; type: cell-based
How it was run: (§1)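 Susceptibility was tested using CLSI two-fold agar dilution against the strains examined.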

[2] = system: methicillin-resistant Staphylococcus epidermidis (MRSE); assay: as above; type: cell-based
How it was run: as §1

[3] = system: methicillin-sensitive Staphylococcus epidermidis (MSSE); assay: as above; type: cell-based
How it was run: as §1

[4] = system: methicillin-resistant Staphylococcus aureus (MRSA); assay: as above; type: cell-based
How it was run: as §1

[5] = system: Escherichia coli (including ESBLs, non-ESBLs); assay: as above; type: cell-based
How it was run: as §1

[6] = system: Enterococcus faecalis (EFA); assay: as above; type: cell-based
How it was run: as §1

[7] = system: methemoglobin in blood samples of three healthy volunteers; assay: Toxicity on methemoglobin in vitro (whole blood with S9 and NADPH, absorbance at 630 nm); type: cell-based, human; conditions: 500 μM compound; whole blood + S9 + NADPH; 5 hours at 37° C.
How it was run: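 Fresh EDTA whole blood from three healthy volunteers incubated 5 h at 37 °C with human liver S9 (2 mg/mL), NADPH-generating system and compound at 500 μM final. Lysed in 1% Triton X-100; MetHb % from 630 nm absorbance relative to ferricyanide-oxidized blood.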

[8] = system: the test strains; assay: MIC against the test strains (strain not given); type: cell-based; conditions: read-out: MIC (azole amide bioisosteres)
Description: 1. The invention adopts the two-fold agar dilution method recommended by the operating procedure of antimicrobial susceptibility testing set by American Clinical and Laboratory Standards Institute (CLSI) to determine the Minimum Inhibitory Concentration (MIC) of the test samples against the tested strains.

[9] = system: HCT-116 colorectal cancer cell line; assay: CCK-8 proliferation inhibition; type: cell-based; conditions: Homo sapiens, HCT-116, 72 h, read-out: HCT116 inhibition rate/%
How it was run: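 Viability read-out: 1:10 diluted CCK-8 after 72 h compound exposure at 37 °C, 5% CO2. Cells (2000/well, McCoy's 5A plus 10% newborn bovine serum) pre-cultured overnight; vehicle control 1‰ DMSO.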

[10] = strain printed MRSA 14-1 (second line of that name, r23, before MRSE 14-2)

SMILES | MIC (anti-bacterial activity) ([1]; strain MSSA 14-1) [µg/mL] | MIC (anti-bacterial activity) ([1]; strain MSSA 14-2) [µg/mL] | MIC (anti-bacterial activity) ([1]; strain MSSA 14-3) [µg/mL] | MIC (anti-bacterial activity) ([1]; strain MSSA 14-4) [µg/mL] | MIC (anti-bacterial activity) ([2]; strain MRSE 14-2) [µg/mL] | MIC (anti-bacterial activity) ([2]; strain MRSE 14-3) [µg/mL] | MIC (anti-bacterial activity) ([2]; strain MRSE 14-4) [µg/mL] | MIC (anti-bacterial activity) ([3]; strain MSSE 14-1) [µg/mL] | MIC (anti-bacterial activity) ([3]; strain MSSE 14-2) [µg/mL] | MIC (anti-bacterial activity) ([3]; strain MSSE 14-3) [µg/mL] | MIC (anti-bacterial activity) ([3]; strain MSSE 14-4) [µg/mL] | MIC (anti-bacterial activity) ([4]; strain MRSA 14-1) [µg/mL] | MIC (anti-bacterial activity) ([4]; strain MRSA 14-2) [µg/mL] | MIC (anti-bacterial activity) ([4]; strain MRSA 14-4) [µg/mL] | MIC (anti-bacterial activity) ([4]; strain MRSA 14-5) [µg/mL] | MIC (anti-bacterial activity) [4, 10] [µg/mL] | MIC (anti-bacterial activity) ([5]; strain ECO+ 14-1) [µg/mL] | MIC (anti-bacterial activity) ([5]; strain ECO+ 14-2) [µg/mL] | MIC (anti-bacterial activity) ([5]; strain ECO− 14-1) [µg/mL] | MIC (anti-bacterial activity) ([5]; strain ECO− 14-2) [µg/mL] | further results
CCCC[C@H](CN(O)C=O)C(=O)N1CC2(CC2)C[C@H]1c1nc2ccccc2[nH]1 [Example 10, N—((R)-2-((S)-6-(1H-benzimidazol-2-yl)-5-azaspiro[2.4]heptane-5-carbonyl)hexyl)-N-hydroxyformamide] | 2 (≈ 5.2 µM) | 2 (≈ 5.2 µM) | 2 (≈ 5.2 µM) | 2 (≈ 5.2 µM) | 1 (≈ 2.6 µM) | 0.5 (≈ 1.3 µM) | 1 (≈ 2.6 µM) | 0.5 (≈ 1.3 µM) | 2 (≈ 5.2 µM) | 0.5 (≈ 1.3 µM) | 2 (≈ 5.2 µM) | 1 (≈ 2.6 µM) | 2 (≈ 5.2 µM) | 2 (≈ 5.2 µM) | 0.5 (≈ 1.3 µM) | 1 (≈ 2.6 µM) | 0.5 (≈ 1.3 µM) | 32 (≈ 83.2 µM) | 32 (≈ 83.2 µM) | 32 (≈ 83.2 µM) | MIC (anti-bacterial activity) ([6]; strain EFA 14-1): 8 µg/mL (≈ 20.8 µM); MIC (anti-bacterial activity) ([6]; strain EFA 14-2): 8 µg/mL (≈ 20.8 µM); MIC (anti-bacterial activity) ([6]; strain EFA 14-3): 8 µg/mL (≈ 20.8 µM); MIC (anti-bacterial activity) ([6]; strain EFA 14-5): 64 µg/mL (≈ 166 µM); MetHb % (n = 3) [7]: 1.12 ± 0.01%; MIC [8]: 0.5 to 2 µg/mL (≈ 1.3 to 5.2 µM); inhibition at 30 µM [9]: 10%
CCCC[C@H](CN(O)C=O)C(=O)N1CC2(CC2)C[C@H]1c1nc(-c2cccnc2)no1 [Example 11, N-hydroxy-N—((R)-2-((S)-6-(3-(pyridin-3-yl)-1,2,4-oxadiazol-5-yl)-5-azaspiro[2.4]heptane-5-carbonyl)hexyl)carboxamide] | 0.5 (≈ 1.21 µM) | 0.5 (≈ 1.21 µM) | 0.5 (≈ 1.21 µM) | 0.5 (≈ 1.21 µM) | 0.25 (≈ 0.605 µM) | 0.125 (≈ 0.302 µM) | 0.5 (≈ 1.21 µM) | 0.125 (≈ 0.302 µM) | 0.5 (≈ 1.21 µM) | 0.125 (≈ 0.302 µM) | 0.5 (≈ 1.21 µM) | 0.5 (≈ 1.21 µM) | 0.5 (≈ 1.21 µM) | 0.5 (≈ 1.21 µM) | 0.5 (≈ 1.21 µM) | 0.25 (≈ 0.605 µM) | 1 (≈ 2.42 µM) | 32 (≈ 77.4 µM) | 64 (≈ 155 µM) | 64 (≈ 155 µM) | MIC (anti-bacterial activity) ([6]; strain EFA 14-1): 2 µg/mL (≈ 4.84 µM); MIC (anti-bacterial activity) ([6]; strain EFA 14-2): 2 µg/mL (≈ 4.84 µM); MIC (anti-bacterial activity) ([6]; strain EFA 14-3): 2 µg/mL (≈ 4.84 µM); MIC (anti-bacterial activity) ([6]; strain EFA 14-5): 2 µg/mL (≈ 4.84 µM); MetHb % (n = 3) [7]: 1.26 ± 0.07%; MIC [8]: 0.5 to 2 µg/mL (≈ 1.21 to 4.84 µM); inhibition at 30 µM [9]: 17%
